Test results from publication PMC8309005, “Novel Non-Congeneric Derivatives of the Choline Kinase Alpha Inhibitor ICL-CCIC-0019” (Pharmaceutics, 2021).
Where two headings read alike, the source gives them in different places. Blank lines part the entries; values can stand above or below the molecule they belong to.

Key:
DGK b = DGK b (Homo sapiens, UniProt Q9Y6T7); assay: Lipid kinase screening (ADP-Glo), DGK b; assay type: biochemical
Protocol: (§1) The lipid kinase screening for ICL-CCIC-0019, CK14, CK145 (5), CK146 (4) and CK147 (8) (testing concentration for all compounds: 10 μM) was performed by MRC PPU International Centre for Kinase Profiling (Dundee, UK). The lipid kinase screening panel includes 15 human recombinant lipid kinases and the tests used Promega ADP Glo^TM High Throughput Assay kit (Promega, Southampton, UK). For each assay, reference compounds were used as quality control. Finally, mean percentage activity inhibited by compounds and standard deviation for all the repeats were calculated.

Kinetic solubility assay = assay type: physicochemical; details: aqueous buffer, kinetic from dmso stock
Protocol: (§2) The ADME study for ICL-CCIC-0019, CK14, CK145 (5), CK146 (4) and CK147 (8) was performed by Charles River Drug Discovery Services (Essex, UK).
(§3) The predicted in vitro pharmacokinetic characteristics of compounds were evaluated by four ADME assays, namely kinetic solubility assay, metabolic stability assay using human liver microsome S9, permeability and efflux study using the Caco-2 cell line, and matrix stability assay using fasted state simulated gastric fluid (FaSSGF). All tested CHKA inhibitors were highly soluble (>150 μM) in 0.1 M PBS (2% DMSO) (Table 1). […] The in vivo clearance was calculated to predict the actual clearance in humans by scaling the clearance values, which takes into account liver weight, microsomes per liver and liver blood flow. […] In Caco-2 cell permeability assay, drug permeability was investigated and presented as apparent permeability coefficients (Papp) in A to B (A-B, apical to basolateral direction) and B to A (B-A, basolateral to apical direction).

[1] = molecular target: phosphatidylinositol 4-kinase beta (PIK4CB) (Homo sapiens, UniProt Q9UBF8); assay: Lipid kinase screening (ADP-Glo), PIK4CB; assay type: biochemical
Sequence of phosphatidylinositol 4-kinase beta (PIK4CB) (Q9UBF8 whole entry): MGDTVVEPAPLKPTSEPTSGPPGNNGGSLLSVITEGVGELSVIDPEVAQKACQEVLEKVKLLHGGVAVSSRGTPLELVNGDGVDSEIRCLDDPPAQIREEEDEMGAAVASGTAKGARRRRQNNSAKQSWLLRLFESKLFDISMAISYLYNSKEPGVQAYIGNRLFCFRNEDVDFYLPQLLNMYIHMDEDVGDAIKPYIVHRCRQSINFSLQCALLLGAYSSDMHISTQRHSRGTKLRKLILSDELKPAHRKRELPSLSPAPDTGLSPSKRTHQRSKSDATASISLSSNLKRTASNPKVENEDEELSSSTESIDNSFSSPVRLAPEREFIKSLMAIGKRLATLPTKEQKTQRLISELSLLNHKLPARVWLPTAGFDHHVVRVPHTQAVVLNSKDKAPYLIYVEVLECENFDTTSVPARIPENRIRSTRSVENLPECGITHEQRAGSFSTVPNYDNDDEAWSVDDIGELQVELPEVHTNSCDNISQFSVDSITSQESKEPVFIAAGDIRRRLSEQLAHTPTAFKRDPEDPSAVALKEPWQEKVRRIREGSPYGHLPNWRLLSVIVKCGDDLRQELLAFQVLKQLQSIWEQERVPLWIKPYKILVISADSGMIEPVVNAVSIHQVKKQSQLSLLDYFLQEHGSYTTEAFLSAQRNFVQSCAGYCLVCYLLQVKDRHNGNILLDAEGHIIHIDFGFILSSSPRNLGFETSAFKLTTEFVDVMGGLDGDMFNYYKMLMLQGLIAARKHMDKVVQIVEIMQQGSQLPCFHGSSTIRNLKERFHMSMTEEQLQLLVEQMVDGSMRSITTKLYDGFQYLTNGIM
Protocol: as §1

[2] = test system: Δ49N CHKA2 (recombinant CHKA2); details: read-out: IC50 against recombinant CHKA2; cited from earlier work
A549 = details: cited from earlier work
PI3K a = PI3K a (Homo sapiens, UniProt P42336); assay: Lipid kinase screening (ADP-Glo), PI3K a; assay type: biochemical
Sequence of PI3K a (P42336 whole entry): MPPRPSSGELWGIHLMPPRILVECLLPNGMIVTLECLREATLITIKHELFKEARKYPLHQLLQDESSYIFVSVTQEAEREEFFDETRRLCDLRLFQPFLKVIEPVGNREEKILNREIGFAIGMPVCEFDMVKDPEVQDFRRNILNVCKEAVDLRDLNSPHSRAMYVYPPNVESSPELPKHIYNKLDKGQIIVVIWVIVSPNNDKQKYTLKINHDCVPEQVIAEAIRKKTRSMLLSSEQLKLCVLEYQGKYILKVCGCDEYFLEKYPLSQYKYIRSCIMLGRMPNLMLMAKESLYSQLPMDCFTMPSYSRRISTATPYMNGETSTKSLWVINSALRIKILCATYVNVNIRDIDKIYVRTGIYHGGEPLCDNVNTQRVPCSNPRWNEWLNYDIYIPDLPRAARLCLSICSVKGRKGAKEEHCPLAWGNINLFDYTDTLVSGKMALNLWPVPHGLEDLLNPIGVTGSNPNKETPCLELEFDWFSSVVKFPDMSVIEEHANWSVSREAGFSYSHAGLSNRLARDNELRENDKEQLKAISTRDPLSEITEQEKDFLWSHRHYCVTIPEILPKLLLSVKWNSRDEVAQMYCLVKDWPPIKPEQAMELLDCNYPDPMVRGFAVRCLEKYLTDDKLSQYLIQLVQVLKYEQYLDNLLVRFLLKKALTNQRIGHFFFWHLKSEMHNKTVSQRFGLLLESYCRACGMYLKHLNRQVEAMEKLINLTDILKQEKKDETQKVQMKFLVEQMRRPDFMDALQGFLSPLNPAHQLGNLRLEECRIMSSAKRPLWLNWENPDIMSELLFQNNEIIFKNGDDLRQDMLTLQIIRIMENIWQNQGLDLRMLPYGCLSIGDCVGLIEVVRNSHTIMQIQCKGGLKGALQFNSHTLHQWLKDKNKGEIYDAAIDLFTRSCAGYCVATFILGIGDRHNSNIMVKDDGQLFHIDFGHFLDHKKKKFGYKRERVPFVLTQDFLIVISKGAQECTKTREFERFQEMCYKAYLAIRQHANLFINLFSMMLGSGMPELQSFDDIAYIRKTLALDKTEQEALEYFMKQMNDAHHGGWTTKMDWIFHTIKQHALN
Sequence of PI3K a (P27986 whole entry partner): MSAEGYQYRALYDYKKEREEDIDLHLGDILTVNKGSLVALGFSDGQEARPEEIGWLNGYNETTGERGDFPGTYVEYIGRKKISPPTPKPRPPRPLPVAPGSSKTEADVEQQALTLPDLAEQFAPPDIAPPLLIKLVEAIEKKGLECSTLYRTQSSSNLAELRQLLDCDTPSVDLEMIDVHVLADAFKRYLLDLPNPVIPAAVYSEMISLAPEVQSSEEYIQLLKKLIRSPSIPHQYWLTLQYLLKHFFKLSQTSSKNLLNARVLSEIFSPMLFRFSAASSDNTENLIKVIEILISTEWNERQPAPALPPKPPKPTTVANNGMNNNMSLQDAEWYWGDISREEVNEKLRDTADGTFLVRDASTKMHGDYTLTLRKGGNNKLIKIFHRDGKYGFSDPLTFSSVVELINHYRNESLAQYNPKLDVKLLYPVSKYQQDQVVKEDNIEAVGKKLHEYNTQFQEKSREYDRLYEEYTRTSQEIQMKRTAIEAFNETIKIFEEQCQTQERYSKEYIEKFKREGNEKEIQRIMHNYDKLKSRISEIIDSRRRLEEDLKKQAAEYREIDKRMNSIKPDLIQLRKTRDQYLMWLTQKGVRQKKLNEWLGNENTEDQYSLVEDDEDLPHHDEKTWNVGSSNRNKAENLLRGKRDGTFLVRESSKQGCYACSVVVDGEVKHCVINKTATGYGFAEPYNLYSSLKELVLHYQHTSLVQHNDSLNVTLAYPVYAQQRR
Protocol: as §1

CHK a (CHKA) = CHK a (CHKA) (Homo sapiens, UniProt P35790); assay: Lipid kinase screening (ADP-Glo), CHKA; assay type: biochemical
Sequence of CHK a (CHKA) (P35790 whole entry): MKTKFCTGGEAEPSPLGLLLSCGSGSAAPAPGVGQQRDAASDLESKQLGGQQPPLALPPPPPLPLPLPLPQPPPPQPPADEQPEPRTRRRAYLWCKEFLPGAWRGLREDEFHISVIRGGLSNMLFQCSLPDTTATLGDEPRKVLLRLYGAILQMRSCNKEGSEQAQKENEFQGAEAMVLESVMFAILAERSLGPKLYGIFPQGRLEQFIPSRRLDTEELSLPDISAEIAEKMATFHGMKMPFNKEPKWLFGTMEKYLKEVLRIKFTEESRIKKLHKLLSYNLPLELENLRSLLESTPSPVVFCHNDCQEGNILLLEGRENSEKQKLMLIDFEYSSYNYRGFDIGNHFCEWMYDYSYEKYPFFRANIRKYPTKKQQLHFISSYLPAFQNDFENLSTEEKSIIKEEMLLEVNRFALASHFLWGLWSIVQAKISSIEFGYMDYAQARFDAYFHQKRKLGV
Protocol: as §1

DGK g = DGK g (Homo sapiens, UniProt P49619); assay: Lipid kinase screening (ADP-Glo), DGK g; assay type: biochemical
Protocol: as §1

HCT-116 = details: cited from earlier work
PI3Ka E524K + p85 = assay: Lipid kinase screening (ADP-Glo), PI3Ka E524K + p85; assay type: biochemical, human; details: 10 μM
Protocol: as §1

[3] = Caco-2 permeability and efflux study; assay type: in vitro ADME, human
Protocol: as §2, §3

CHK b (CHKB) = CHK b (CHKB) (Homo sapiens, UniProt Q9Y259); assay: Lipid kinase screening (ADP-Glo), CHKB; assay type: biochemical
Sequence of CHK b (CHKB) (Q9Y259 whole entry): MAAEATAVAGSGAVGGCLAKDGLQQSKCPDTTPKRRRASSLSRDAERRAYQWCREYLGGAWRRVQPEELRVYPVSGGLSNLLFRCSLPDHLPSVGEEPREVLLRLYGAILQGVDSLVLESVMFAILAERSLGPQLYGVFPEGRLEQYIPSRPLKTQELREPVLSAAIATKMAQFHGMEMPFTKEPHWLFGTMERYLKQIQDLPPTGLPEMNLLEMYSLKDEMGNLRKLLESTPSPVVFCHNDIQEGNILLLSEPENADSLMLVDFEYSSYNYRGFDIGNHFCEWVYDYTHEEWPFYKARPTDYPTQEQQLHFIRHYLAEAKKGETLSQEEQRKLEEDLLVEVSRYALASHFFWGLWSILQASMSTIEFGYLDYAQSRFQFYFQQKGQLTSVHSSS
Protocol: as §1

PI3Ka E545K + p85 = PI3Ka E545K + p85 (Homo sapiens, UniProt P42336, E545K); assay: Lipid kinase screening (ADP-Glo), PI3Ka E545K + p85; assay type: biochemical
Sequence of PI3Ka E545K + p85 (P42336 whole entry E545K): as the sequence (P42336 whole entry) above, with E545K counted along it
Sequence of PI3Ka E545K + p85 (P27986 whole entry partner): as the sequence (P27986 whole entry partner) above
Protocol: as §1

[4] = test system: [18F]D4-FCH uptake in C4-2B cells; assay: [18F]D4-FCH uptake in vitro study, C4-2B; assay type: cell-based; details: Homo sapiens
Protocol: HCT-116 and C4-2B cells were seeded at a density of 5 × 10^5 cells per well into 6-well plates and incubated overnight. Cells were treated with 1 or 10 µM CHKA inhibitors (CK14, CK145, CK146 and CK147) for 1 h and pulsed with [^18F]D4-FCH (740 kBq) in presence of inhibitors in 1 mL for an additional hour at 37 °C. Cells were washed with ice-cold PBS three times and lysed in 1 mL RIPA buffer. The radioactivity of 800 µL lysate from each well was counted on a gamma counter (Perkin Elmer, Beaconsfield, UK) and normalized to protein content as determined by BCA assay.

SPHK2 = molecular target: T1, SPHK2 (Homo sapiens, UniProt Q9NRA0); assay: Lipid kinase screening (ADP-Glo), SPHK2; assay type: biochemical
T1 sequence (Q9NRA0 1-654): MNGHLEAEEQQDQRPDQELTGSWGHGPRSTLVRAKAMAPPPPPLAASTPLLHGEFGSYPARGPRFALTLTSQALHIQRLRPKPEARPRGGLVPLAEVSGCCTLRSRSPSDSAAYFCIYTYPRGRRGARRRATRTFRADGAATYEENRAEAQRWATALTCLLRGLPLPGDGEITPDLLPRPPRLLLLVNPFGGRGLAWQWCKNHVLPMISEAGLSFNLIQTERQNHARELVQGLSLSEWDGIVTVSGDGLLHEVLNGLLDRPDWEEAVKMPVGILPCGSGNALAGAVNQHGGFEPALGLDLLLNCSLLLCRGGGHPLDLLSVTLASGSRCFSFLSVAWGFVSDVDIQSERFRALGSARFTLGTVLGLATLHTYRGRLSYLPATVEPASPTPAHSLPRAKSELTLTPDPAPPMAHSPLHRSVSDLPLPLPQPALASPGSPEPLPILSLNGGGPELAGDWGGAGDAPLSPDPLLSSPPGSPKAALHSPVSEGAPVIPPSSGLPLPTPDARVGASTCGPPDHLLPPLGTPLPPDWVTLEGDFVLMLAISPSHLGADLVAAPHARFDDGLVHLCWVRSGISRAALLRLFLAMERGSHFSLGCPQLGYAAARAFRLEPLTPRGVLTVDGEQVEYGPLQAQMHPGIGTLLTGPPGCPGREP
Protocol: as §1

PI4K2a = PI4K2a (Homo sapiens, UniProt Q9BTU6); assay: Lipid kinase screening (ADP-Glo), PI4K2a; assay type: biochemical
Protocol: as §1

[5] = Human microsomal metabolic stability assay; assay type: in vitro ADME
Protocol: as §2, §3

DGK z = DGK z (Homo sapiens, UniProt Q13574); assay: Lipid kinase screening (ADP-Glo), DGK z; assay type: biochemical
Protocol: as §1

PIP5K2A = molecular target: T2, PIP5K2A (Homo sapiens, UniProt P48426); assay: Lipid kinase screening (ADP-Glo), PIP5K2A; assay type: biochemical
T2 sequence (P48426 1-406): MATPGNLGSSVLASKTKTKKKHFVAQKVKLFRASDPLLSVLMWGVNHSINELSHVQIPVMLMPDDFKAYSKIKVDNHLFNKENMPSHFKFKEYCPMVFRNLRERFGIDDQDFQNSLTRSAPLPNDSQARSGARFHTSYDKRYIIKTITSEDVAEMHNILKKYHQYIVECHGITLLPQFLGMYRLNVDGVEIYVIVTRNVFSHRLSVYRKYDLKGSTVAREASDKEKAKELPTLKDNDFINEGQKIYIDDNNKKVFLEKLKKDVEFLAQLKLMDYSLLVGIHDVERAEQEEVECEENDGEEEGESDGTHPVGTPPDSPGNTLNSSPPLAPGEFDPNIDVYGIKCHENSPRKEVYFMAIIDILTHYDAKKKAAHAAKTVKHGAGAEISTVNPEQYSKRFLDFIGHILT
Protocol: as §1

PI3K g = PI3K g (Homo sapiens, UniProt P48736); assay: Lipid kinase screening (ADP-Glo), PI3K g; assay type: biochemical
Protocol: as §1

PI3K b = PI3K b (Homo sapiens, UniProt P42338); assay: Lipid kinase screening (ADP-Glo), PI3K b; assay type: biochemical
Sequence of PI3K b (P42338 whole entry): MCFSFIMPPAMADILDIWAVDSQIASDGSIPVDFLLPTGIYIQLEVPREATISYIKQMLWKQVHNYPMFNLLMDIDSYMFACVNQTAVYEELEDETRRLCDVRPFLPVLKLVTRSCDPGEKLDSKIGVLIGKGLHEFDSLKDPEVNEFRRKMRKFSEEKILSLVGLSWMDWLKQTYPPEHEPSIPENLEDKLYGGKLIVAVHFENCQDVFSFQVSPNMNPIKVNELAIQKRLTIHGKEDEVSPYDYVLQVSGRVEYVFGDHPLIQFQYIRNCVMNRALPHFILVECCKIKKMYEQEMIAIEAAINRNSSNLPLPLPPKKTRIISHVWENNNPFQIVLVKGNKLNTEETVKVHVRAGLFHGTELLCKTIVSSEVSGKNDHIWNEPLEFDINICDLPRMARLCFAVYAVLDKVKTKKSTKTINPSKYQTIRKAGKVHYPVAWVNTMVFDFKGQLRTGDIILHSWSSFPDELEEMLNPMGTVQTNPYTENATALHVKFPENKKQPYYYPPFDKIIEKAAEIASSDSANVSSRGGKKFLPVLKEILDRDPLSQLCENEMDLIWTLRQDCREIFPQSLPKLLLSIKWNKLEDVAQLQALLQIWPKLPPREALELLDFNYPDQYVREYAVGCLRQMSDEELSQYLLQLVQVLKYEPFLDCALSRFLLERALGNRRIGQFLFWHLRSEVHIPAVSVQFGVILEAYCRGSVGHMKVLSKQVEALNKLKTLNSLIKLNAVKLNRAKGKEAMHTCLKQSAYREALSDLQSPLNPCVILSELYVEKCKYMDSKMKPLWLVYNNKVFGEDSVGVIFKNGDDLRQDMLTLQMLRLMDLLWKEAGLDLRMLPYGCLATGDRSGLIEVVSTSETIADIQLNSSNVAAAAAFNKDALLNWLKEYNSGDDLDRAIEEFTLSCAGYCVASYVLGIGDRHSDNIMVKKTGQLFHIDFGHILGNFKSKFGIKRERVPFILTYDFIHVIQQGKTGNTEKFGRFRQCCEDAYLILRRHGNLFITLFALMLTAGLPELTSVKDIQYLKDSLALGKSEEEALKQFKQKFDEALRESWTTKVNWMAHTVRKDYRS
Sequence of PI3K b (P27986 whole entry partner): as the sequence (P27986 whole entry partner) above
Protocol: as §1

[6] = Matrix stability assay in fasted state simulated gastric fluid (FaSSGF); assay type: in vitro ADME; details: for half-life: pH 1.6
Protocol: as §2, §3

SPHK1 = SPHK1 (Homo sapiens, UniProt Q9NYA1); assay: Lipid kinase screening (ADP-Glo), SPHK1; assay type: biochemical
Sequence of SPHK1 (Q9NYA1 whole entry): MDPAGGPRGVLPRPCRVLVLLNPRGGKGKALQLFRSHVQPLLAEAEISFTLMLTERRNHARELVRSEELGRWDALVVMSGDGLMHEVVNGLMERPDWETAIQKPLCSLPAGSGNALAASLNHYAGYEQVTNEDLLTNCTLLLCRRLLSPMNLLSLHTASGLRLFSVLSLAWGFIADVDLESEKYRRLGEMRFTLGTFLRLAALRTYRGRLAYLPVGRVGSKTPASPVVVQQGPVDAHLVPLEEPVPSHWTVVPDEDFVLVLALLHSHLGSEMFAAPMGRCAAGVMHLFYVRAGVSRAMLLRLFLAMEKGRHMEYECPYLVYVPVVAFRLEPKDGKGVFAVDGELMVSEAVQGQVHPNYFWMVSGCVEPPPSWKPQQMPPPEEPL
Protocol: as §1

Caco-2 cell line = assay: Caco-2 permeability and efflux study; assay type: in vitro ADME, human; details: Caco-2
Protocol: as §2, §3

[7] = Conjugate stability test of CK147 in medium (HPLC); assay type: physicochemical; details: up to 72 h
Protocol: To assess stability of CK147 in medium, 5 mL of medium containing 10% FCS and 1% L-glutamine was added sterilely to a six-well plate. Next, 1.7 μL of 300 mM CK147 in DMSO or 1.7 μL DMSO was added into wells and the plate was gently shaken for 5 s before being incubated at 37 °C in a humidified atmosphere containing 5% CO2. After 0, 2, 4, 6, 24, 48 and 72 h, 200 μL aliquots of medium from each well were transferred into a 1.5-mL tube containing 198.4 μL acetonitrile and 1.6 μL of 2.5 mg/mL ICL-CCIC-0019 as an internal standard (IS) […]. […] One hundred microliters of the solution were injected into the HPLC system described in Supplementary HPLC method D. Three repeats were performed for each sample.

inhibition at 10 µM (DGK b): 11.9%
solubility kinetic (Kinetic solubility assay; 0.1 M PBS (2% DMSO), read-out: Kinetic Solubility: Solubility): 154 µM
inhibition at 10 µM [1]: -4.1%
inhibition at 10 µM (PI3K a): -1.9%
inhibition at 10 µM (CHK a (CHKA)): 77%
inhibition at 10 µM (DGK g): 12.8%
% Inhibition PI3Ka E524K + p85 (PI3Ka E524K + p85): 1.6%
efflux ratio ([3]; human, Caco-2, read-out: Efflux ratio (Papp B-A/Papp A-B)): > 87
Papp A→B ([3]; human, Caco-2, apical to basolateral, read-out: Papp A-B): < 0.1 ×10⁻⁶ cm/s
Papp B→A ([3]; human, Caco-2, basolateral to apical, read-out: Papp B-A): 8.7 ×10⁻⁶ cm/s
inhibition at 10 µM (CHK b (CHKB)): -33.7%
inhibition at 10 µM (PI3Ka E545K + p85): -15.2%
inhibition at 10 µM (SPHK2): 16%
inhibition at 10 µM (PI4K2a): -48.8%
PCT_LBF % (percentage of compound removed compared to liver blood flow) ([5]; human): <45%
Human Microsomal Metabolic Stability: Remaining % ([5]; human liver microsome S9): 101%
microsomal CLint ([5]; human, human liver microsome S9, human liver microsome S9, read-out: Human Microsomal Metabolic Stability: Clint): < 14 µL/min/mg
half-life ([5]; human, human liver microsome S9, human liver microsome S9, read-out: Human Microsomal Metabolic Stability: Half-life): > 1.67 h
Predicted in vivo clearance ([5]; scaled from microsomal clearance (liver weight, microsomes per liver, liver blood flow), human): <10 mL/min/kg
inhibition at 10 µM (DGK z): 4.7%
inhibition at 10 µM (PIP5K2A): -2.7%
inhibition at 10 µM (PI3K g): 16.4%
inhibition at 10 µM (PI3K b): -36.2%
Matrix Stability: Remaining % ([6]; FaSSGF): 95%
half-life ([6]; fasted state simulated gastric fluid (FaSSGF), fasted state simulated gastric fluid, read-out: FaSSGF stability Half-life (converted)): > 10 h
inhibition at 10 µM (SPHK1): -10.1%
SMILES: CN(C)c1cc[n+](CCCCCCCCCCCCCC[n+]2ccc(N(C)C)cc2)cc1.[Br-].[Br-] [CK14, reference compound]
IC50 [2]: 150 nM
GI50 (A549): 330 nM
GI50 (HCT-116): 290 nM
inhibition at 1 µM ([4]; 1 μM, read-out: inhibition of [18F]D4-FCH uptake (mean of CK14, CK145 and CK146)): 46 ± 1%
inhibition at 10 µM ([4]; 10 μM): 93 ± 5%

SMILES: CN(C)c1cc[n+](CCCCCCCCCCCCCC[n+]2ccc(N3CCN(C(=O)CSC4CC(=O)N(CCC(=O)NCCCCCC(=O)NCCCCC(NC(=O)NC(CCC(=O)O)C(=O)O)C(=O)O)C4=O)CC3)cc2)cc1 (stereo not drawn) [CK147]
inhibition at 10 µM (DGK b): -4.9%
solubility kinetic (Kinetic solubility assay): 186 µM
inhibition at 10 µM [1]: 0.5%
inhibition at 10 µM (PI3K a): -2.6%
inhibition at 10 µM (CHK a (CHKA)): 13.1%
inhibition at 10 µM (DGK g): -6.5%
Papp A→B ([3]; Caco-2): < 0.1 ×10⁻⁶ cm/s
Papp B→A ([3]; Caco-2): < 0.1 ×10⁻⁶ cm/s
Efflux ratio (Papp B-A/Papp A-B) (Caco-2 cell line): too poor to permit calculation of the efflux ratio
inhibition at 10 µM (CHK b (CHKB)): 3.2%
inhibition at 10 µM (PI3Ka E545K + p85): 22.8%
chemical decomposition in medium by HPLC/MS (in words) [7]: Chemical decomposition was not detected
inhibition at 10 µM (SPHK2): -3.7%
inhibition at 10 µM (PI4K2a): 10.4%
PCT_LBF % (percentage of compound removed compared to liver blood flow) [5]: <45%
Predicted in vivo clearance [5]: <10 mL/min/kg
Human Microsomal Metabolic Stability: Remaining % ([5]; human): 105%
microsomal CLint ([5]; human, Human Microsomal Metabolic Stability: Clint): < 14 µL/min/mg
half-life ([5]; human, liver microsomes, Human Microsomal Metabolic Stability: Half-life): > 1.67 h
inhibition at 10 µM (DGK z): 4.7%
inhibition at 10 µM (PIP5K2A): -1.5%
inhibition at 10 µM (PI3K g): 2.1%
inhibition at 10 µM (PI3K b): -0.1%
Matrix Stability: Remaining % ([6]; simulated gi fluid): 97%
half-life ([6]; simulated gi fluid): > 10 h
inhibition at 10 µM (SPHK1): -1%
